The source made the active and inactive calls. No cut-off for these calls is given here.
Assays:
Mus musculus [1] = experiment: Analgesic activity in Mus musculus Swiss albino (mouse) assessed as increase in reaction time at 10 mg/kg, po after 0.5 hr by tail-flick method relative to control; format: functional
Mus musculus [2] = experiment: Analgesic activity in Mus musculus Swiss albino (mouse) assessed as increase in reaction time at 10 mg/kg, po after 1.5 hr by tail-flick method relative to control; format: functional
Mus musculus [3] = experiment: Analgesic activity in Mus musculus Swiss albino (mouse) assessed as increase in reaction time at 10 mg/kg, po after 1 hr by tail-flick method relative to control; format: functional
[4] = Antioxidant activity assessed as superoxide radical scavenging activity at 20 ug/ml after 5 min by NBT reduction assay; format: functional
Rattus norvegicus [5] = experiment: Anti-inflammatory activity in Rattus norvegicus Wistar albino (rat) assessed as inhibition of carrageenan-induced paw edema at 20 mg/kg, po administered 30 min before carrageenan challenge measured after 1.5 hr relative to control; format: functional
[6] = Antioxidant activity assessed as hydroxyl radical scavenging activity at 80 ug/ml after 4 hr; format: functional
[7] = Antioxidant activity assessed as hydroxyl radical scavenging activity at 40 ug/ml after 4 hr; format: functional
[8] = Antioxidant activity assessed as nitric oxide radical scavenging activity at 80 ug/ml after 150 min by Griess Illosvoy reaction; format: functional
[9] = Antioxidant activity assessed as superoxide radical scavenging activity at 60 ug/ml after 5 min by NBT reduction assay; format: functional
[10] = Antioxidant activity assessed as nitric oxide radical scavenging activity at 100 ug/ml after 150 min by Griess Illosvoy reaction; format: functional
Rattus norvegicus [11] = experiment: Anti-inflammatory activity in Rattus norvegicus Wistar albino (rat) assessed as inhibition of carrageenan-induced paw edema at 20 mg/kg, po administered 30 min before carrageenan challenge measured after 0.5 hr relative to control; format: functional
Rattus norvegicus [12] = experiment: Ulcerogenic activity in Rattus norvegicus Wistar albino (rat) assessed as ulcer index at equimolar dose of relative to 200 mg/kg of ibuprofen, po after 17 hr; format: toxicity, organism-based; parameters: dose 200 mg/kg, route oral; settings: in vivo
Staphylococcus aureus = experiment: Antibacterial activity against Staphylococcus aureus by well diffusion method; format: functional, organism-based
[13] = Antioxidant activity assessed as nitric oxide radical scavenging activity at 20 ug/ml after 150 min by Griess Illosvoy reaction; format: functional
[14] = Antioxidant activity assessed as nitric oxide radical scavenging activity at 40 ug/ml after 150 min by Griess Illosvoy reaction; format: functional
[15] = Antioxidant activity assessed as nitric oxide radical scavenging activity at 60 ug/ml after 150 min by Griess Illosvoy reaction; format: functional
[16] = Antioxidant activity assessed as superoxide radical scavenging activity at 40 ug/ml after 5 min by NBT reduction assay; format: functional
[17] = Antioxidant activity assessed as hydroxyl radical scavenging activity at 100 ug/ml after 4 hr; format: functional
Aspergillus = experiment: Antifungal activity against Aspergillus by well diffusion method; format: functional, organism-based
[18] = Antioxidant activity assessed as hydroxyl radical scavenging activity at 20 ug/ml after 4 hr; format: functional
[19] = Antioxidant activity assessed as hydroxyl radical scavenging activity at 60 ug/ml after 4 hr; format: functional
Rattus norvegicus [20] = experiment: Anti-inflammatory activity in Rattus norvegicus Wistar albino (rat) assessed as inhibition of carrageenan-induced paw edema at 20 mg/kg, po administered 30 min before carrageenan challenge measured after 1 hr relative to control; format: functional
[21] = tested on: Radical scavenging activity; experiment: Antioxidant activity assessed as DPPH free radical scavenging activity at 100 ug/ml after 30 min; format: functional
Rattus norvegicus [22] = experiment: Anti-inflammatory activity in Rattus norvegicus Wistar albino (rat) assessed as inhibition of carrageenan-induced paw edema at 20 mg/kg, po administered 30 min before carrageenan challenge measured after 2 hr relative to control; format: functional
Rattus norvegicus [23] = experiment: Anti-inflammatory activity in Rattus norvegicus Wistar albino (rat) assessed as inhibition of carrageenan-induced paw edema at 20 mg/kg, po administered 30 min before carrageenan challenge measured after 3 hr relative to control; format: functional
[24] = Antioxidant activity assessed as superoxide radical scavenging activity at 100 ug/ml after 5 min by NBT reduction assay; format: functional
Escherichia coli = experiment: Antibacterial activity against Escherichia coli by well diffusion method; format: functional, organism-based
[25] = Antioxidant activity assessed as superoxide radical scavenging activity at 80 ug/ml after 5 min by NBT reduction assay; format: functional
Rattus norvegicus [26] = experiment: Anti-inflammatory activity in Rattus norvegicus Wistar albino (rat) assessed as inhibition of carrageenan-induced paw edema at 20 mg/kg, po administered 30 min before carrageenan challenge measured after 2.5 hr relative to control; format: functional
Mus musculus [27] = experiment: Analgesic activity in po dosed Mus musculus Swiss albino (mouse) assessed as increase in reaction time after 1 hr by tail-flick method relative to control; format: functional
Mus musculus [28] = experiment: Analgesic activity in po dosed Mus musculus Swiss albino (mouse) assessed as increase in reaction time after 1.5 hr by tail-flick method relative to control; format: functional
Mus musculus [29] = experiment: Analgesic activity in po dosed Mus musculus Swiss albino (mouse) assessed as increase in reaction time after 0.5 hr by tail-flick method relative to control; format: functional
Rattus norvegicus [30] = experiment: Ulcerogenic activity in Rattus norvegicus Wistar albino (rat) assessed as ulcer index at 200 mg/kg, po after 17 hr; format: toxicity, organism-based; parameters: dose 200 mg/kg, route oral; settings: in vivo

Question: Which results are given for `CC(C)=CCN1CC[C@@]2(C)c3cc(O)ccc3C[C@@H]1[C@@H]2C` (racemic)?
Answer: Activity (Mus musculus [1]): 20.44%; Activity (Mus musculus [2]): 77.34%; Activity (Mus musculus [3]): 40.33%

Question: Which results are given for `CCCc1nn2c(C(C)c3ccc(CC(C)C)cc3)nnc2s1` (stereo not drawn)?
Answer: inhibition [4]: 24.5%; inhibition in vivo at 20 mg/kg (Rattus norvegicus [5]): 24%; inhibition [6]: 56.4%; inhibition [7]: 38.7%; inhibition [8]: 46.7%; inhibition [9]: 42.4%; inhibition [10]: 52.6%; inhibition in vivo at 20 mg/kg (Rattus norvegicus [11]): 10%; UI (Rattus norvegicus [12]): 8.54; Activity (Staphylococcus aureus): inactive; inhibition [13]: 14.3%; inhibition [14]: 26.7%; inhibition [15]: 38.3%; inhibition [16]: 36.4%; inhibition [17]: 62.4%; Activity (Aspergillus): inactive; inhibition [18]: 26.1%; inhibition [19]: 44.2%; inhibition in vivo at 20 mg/kg (Rattus norvegicus [20]): 15%; inhibition [21]: 77.9%; inhibition in vivo at 20 mg/kg (Rattus norvegicus [22]): 28%; inhibition in vivo at 20 mg/kg (Rattus norvegicus [23]): 34%; inhibition [24]: 58.6%; Activity (Escherichia coli): inactive; inhibition [25]: 53%; inhibition in vivo at 20 mg/kg (Rattus norvegicus [26]): 31%

Question: With `CC(C)Cc1ccc(C(C)c2nnc3sc(-c4ccccc4Cl)nn23)cc1` (stereo not drawn) as the compound, how does the Activity (Mus musculus [27]) read?
Answer: 39.74%

Question: And the inhibition in vivo at 20 mg/kg (Rattus norvegicus [5])?
Answer: 57%

Question: And the inhibition in vivo at 20 mg/kg (Rattus norvegicus [11])?
Answer: 64%

Question: What about the Activity (Mus musculus [28]) of the same compound?
Answer: 78.2%

Question: What about the Activity (Mus musculus [29]) of the same compound?
Answer: 19.23%

Question: What about the inhibition in vivo at 20 mg/kg (Rattus norvegicus [20]) of the same compound?
Answer: 43%

Question: And the inhibition [21]?
Answer: 4.46%

Question: And the inhibition in vivo at 20 mg/kg (Rattus norvegicus [22])?
Answer: 59%

Question: And the inhibition in vivo at 20 mg/kg (Rattus norvegicus [23])?
Answer: 59%

Question: What about the inhibition in vivo at 20 mg/kg (Rattus norvegicus [26]) of the same compound?
Answer: 58%

Question: What does the source list for `O=C(O)Cc1ccccc1Nc1c(Cl)cccc1Cl` [DICLOFENAC]?
Answer: inhibition in vivo at 20 mg/kg (Rattus norvegicus [5]): 80%; inhibition in vivo at 20 mg/kg (Rattus norvegicus [11]): 82%; inhibition in vivo at 20 mg/kg (Rattus norvegicus [20]): 65%; inhibition in vivo at 20 mg/kg (Rattus norvegicus [22]): 76%; inhibition in vivo at 20 mg/kg (Rattus norvegicus [23]): 75%; inhibition in vivo at 20 mg/kg (Rattus norvegicus [26]): 73%

Question: What does the source list for `CC(C)Cc1ccc(C(C)C(=O)O)cc1` (stereo not drawn) [IBUPROFEN]?
Answer: Activity (Mus musculus [1]): 11.73%; inhibition in vivo at 20 mg/kg (Rattus norvegicus [5]): 25%; inhibition in vivo at 20 mg/kg (Rattus norvegicus [11]): 20%; Activity (Mus musculus [2]): 30.04%; UI (Rattus norvegicus [30]): 29.37; inhibition in vivo at 20 mg/kg (Rattus norvegicus [20]): 18%; inhibition in vivo at 20 mg/kg (Rattus norvegicus [22]): 36%; inhibition in vivo at 20 mg/kg (Rattus norvegicus [23]): 42%; Activity (Mus musculus [3]): 22.53%; inhibition in vivo at 20 mg/kg (Rattus norvegicus [26]): 39%

Question: With `CC(C)Cc1ccc(C(C)c2nnc3sc(-c4ccc([N+](=O)[O-])cc4Cl)nn23)cc1` (stereo not drawn) as the compound, how does the Activity (Mus musculus [27]) read?
Answer: 31.79%

Question: What about the inhibition in vivo at 20 mg/kg (Rattus norvegicus [5]) of the same compound?
Answer: 59%

Question: What about the Activity (Mus musculus [28]) of the same compound?
Answer: 41.61%

Question: And the Activity (Mus musculus [29])?
Answer: 17.34%

Question: What about the inhibition in vivo at 20 mg/kg (Rattus norvegicus [20]) of the same compound?
Answer: 4%

Question: What about the inhibition [21] of the same compound?
Answer: 1.71%

Question: What about the inhibition in vivo at 20 mg/kg (Rattus norvegicus [22]) of the same compound?
Answer: 67%

Question: What about the inhibition in vivo at 20 mg/kg (Rattus norvegicus [23]) of the same compound?
Answer: 69%

Question: And the inhibition in vivo at 20 mg/kg (Rattus norvegicus [26])?
Answer: 67%

Question: What does the source list for `CCc1nn2c(C(C)c3ccc(CC(C)C)cc3)nnc2s1` (stereo not drawn)?
Answer: Activity (Mus musculus [27]): 16.33%; inhibition in vivo at 20 mg/kg (Rattus norvegicus [5]): 49%; inhibition in vivo at 20 mg/kg (Rattus norvegicus [11]): 5%; Activity (Mus musculus [28]): 30.06%; Activity (Mus musculus [29]): 7.18%; inhibition in vivo at 20 mg/kg (Rattus norvegicus [20]): 22%; inhibition [21]: 5.61%; inhibition in vivo at 20 mg/kg (Rattus norvegicus [22]): 45%; inhibition in vivo at 20 mg/kg (Rattus norvegicus [23]): 55%; inhibition in vivo at 20 mg/kg (Rattus norvegicus [26]): 44%

Question: Which Activity (Mus musculus [27]) does the source give for `Cc1nn2c(C(C)c3ccc(CC(C)C)cc3)nnc2s1` (stereo not drawn) here?
Answer: 32%

Question: And the inhibition in vivo at 20 mg/kg (Rattus norvegicus [5])?
Answer: 62%

Question: What about the inhibition in vivo at 20 mg/kg (Rattus norvegicus [11]) of the same compound?
Answer: 64%

Question: What about the Activity (Mus musculus [28]) of the same compound?
Answer: 42.66%

Question: And the Activity (Mus musculus [29])?
Answer: 26.66%

Question: And the inhibition in vivo at 20 mg/kg (Rattus norvegicus [20])?
Answer: 43%

Question: And the inhibition [21]?
Answer: 7.9%

Question: What about the inhibition in vivo at 20 mg/kg (Rattus norvegicus [22]) of the same compound?
Answer: 58%

Question: And the inhibition in vivo at 20 mg/kg (Rattus norvegicus [23])?
Answer: 62%

Question: What about the inhibition in vivo at 20 mg/kg (Rattus norvegicus [26]) of the same compound?
Answer: 56%

Question: Which inhibition [10] does the source give for `Cc1cc(C(C)(C)C)c(O)c(C(C)(C)C)c1` here?
Answer: 62.2%

Question: What about the inhibition [17] of the same compound?
Answer: 68.3%

Question: What about the inhibition [21] of the same compound?
Answer: 84.8%

Question: What about the inhibition [24] of the same compound?
Answer: 72.5%
